Laboratory results as given in patent US10899699B2, “Vinylogous phenethylamines as neurotransmitter releasers” (RESEARCH TRIANGLE INSTITUTE, priority 2016, dated 2021).
Counter-ions that a name gives are not always drawn.

Compared with C[C@@H](N)CC#Cc1ccccc1 (as salt: hydrochloride) [R-4, (1R)-1-Methyl-4-phenyl-but-3-ynylamine], C[C@H](N)CC#Cc1ccccc1 (as salt: hydrochloride) [S-4, (1S)-1-Methyl-4-phenyl-but-3-ynylamine] is lower in melting point: 143 to 144 °C for the first, 141 to 142 °C for the second.

First: C[C@@H](N)C/C=C/c1ccccc1 (as salt: hydrochloride) [R-6, (1R,3E)-1-Methyl-4-phenyl-but-3-enylamine]
Second: C[C@@H](N)C/C=C\c1ccccc1 (as salt: hydrochloride) [R-8, (1R,3Z)-1-Methyl-4-phenyl-but-3-enylamine]
The melting point of the first is higher: 172 to 174 °C for the first, 83 to 84 °C for the second.

Compared with C[C@H](N)C/C=C/c1ccccc1 (as salt: hydrochloride) [S-6, (1S,3E)-1-Methyl-4-phenyl-but-3-enylamine], C[C@H](N)C/C=C\c1ccccc1 (as salt: hydrochloride) [S-8, (1S,3Z)-1-Methyl-4-phenyl-but-3-enylamine] is lower in melting point: 172 to 173 °C for the first, 83 to 84 °C for the second.

First: CC(N)/C=C/c1ccccc1 (centres unmarked) (as salt: hydrochloride) [compound 10, (2E)-1-Methyl-3-phenyl-prop-2-enylamine]
Second: CC(N)/C=C\c1ccccc1 (centres unmarked) (as salt: hydrochloride) [compound 11, (2Z)-1-Methyl-3-phenyl-prop-2-enylamine]
The melting point of the first is higher: 151 to 152 °C for the first, 149 to 151 °C for the second.

First: CC(N)CC#Cc1ccccc1 (racemic) (as salt: hydrochloride) [compound 4, 1-Methyl-4-phenyl-but-3-ynylamine]
Second: CC(N)C/C=C/c1ccccc1 (racemic) (as salt: hydrochloride) [compound 6, (3E)-1-Methyl-4-phenyl-but-3-enylamine]
The melting point of the first is lower: 131 to 132 °C for the first, 147 to 148 °C for the second.

Work on CC(N)C/C=C\c1ccccc1 (racemic) (as salt: hydrochloride) [compound 8, (3Z)-1-Methyl-4-phenyl-but-3-enylamine] yielded a melting point of 115 to 117 °C.
